2 molecules from US12357598B2, “Treatment of neurodevelopmental disorders” (THE REGENTS OF THE UNIVERSITY OF CALIFORNIA, priority 2018, dated 2025) can be followed below.

What all share (format): in vivo, mouse
In experiment [1] the test system is ddY mice. Description: Measurement of NMDAR-related amino acids in plasma and brain after maternal glyphosate exposure. The following applies: juvenile offspring (P28). Here is the method: Measurement of amino acids. On P28, mice were deeply anesthetized with isoflurane and plasma was collected. Subsequently, prefrontal cortex (PFC), hippocampus and striatum were quickly dissected on ice from whole brain. The dissected tissues were weighed and stored at −80° C. until assayed. Levels of amino acids (glutamate, glutamine, glycine, L-serine, D-serine, GABA) were measured using high performance liquid chromatography system (Shimadzu Corporation, Kyoto, Japan), as reported previously (12,18,19).

For experiment [2], the system named is gut microbiota. In words: 16S rRNA analysis of fecal samples after maternal glyphosate exposure. The note with it: juvenile offspring (P28). Here is the method:
16S rRNA analysis and measurement of short-chain fluty acids of fecal samples. On P28, we collected fresh fecal samples from each mouse at around 10:00 in order to avoid circadian effects on the microbiome. The fecal samples were put into a sterilized screw cap microtube immediately after defecation, and these samples were stored at −80° C. until use. DNA extraction from mouse feces and 16S rRNA analysis of fecal samples were performed by MyMetagenome Co, Ltd. (Tokyo, Japan), as reported previously (20,21).

Experiment [3] deals with ddY mice. Description: Novel object recognition test (NORT), offspring after MIA. As to the method:
Experiments of TPPU in drinking water. For experiment of TPPU (synthesized at UC Davis, CA) in drinking water in juvenile and adolescent stages, TPPU (15 mg/L) or water in drinking water was given in the male offspring from P28 to P56. Subsequently, normal water was given to all groups for 4 weeks (P57-P84). Behavioral tests of adult offspring were performed during adulthood (P70-P84) after prenatal poly(I:C) injections (FIG. 4A).
For experiment of TPPU in drinking water in pregnant stages, TPPU (15 mg/L) or water in drinking water was given in the pregnant mice from E12 to P21. Subsequently, normal water was given to all groups for […] (P21-P42). Behavioral tests of offspring were performed during juvenile stage (P28-P42) after prenatal poly(I:C) injections (FIG. 6A).
Novel Object Recognition Test (NORT): Mice were habituated for 10 minutes in the box for 3 straight days. At 4th day, two objects (differing in shape and color but of similar size) were placed in the box 35.5 cm apart (symmetrically), and each animal was allowed to explore in the box for 5 minutes. […] The time that mice spent exploring each object was recorded. […] The mice were then allowed to explore freely for 5 minutes, and the time spent exploring each object was recorded. […]

Take `O=C(O)CNCP(=O)(O)O` [glyphosate]: in experiment [1] (PFC), the D-Serine level was determined as 0.313 ± 0.010 nmol/mg tissue, the GABA level was determined as 2.060 ± 0.058 nmol/mg tissue, the Glutamate level was 10.392 ± 0.377 nmol/mg tissue and the Glutamine level came out at 5.053 ± 0.243 nmol/mg tissue. In experiment [1] (PFC), this molecule displayed a Glycine level of 0.705 ± 0.023 nmol/mg tissue and a L-Serine level of 0.622 ± 0.016 nmol/mg tissue. In addition, in experiment [1] (hippocampus), the D-Serine level came out at 0.259 ± 0.017 nmol/mg tissue, the GABA level is recorded as 2.469 ± 0.097 nmol/mg tissue, the Glutamate level amounted to 9.350 ± 0.282 nmol/mg tissue and the Glutamine level is on record as 4.765 ± 0.137 nmol/mg tissue. In experiment [1] (hippocampus), this molecule yielded a Glycine level of 0.725 ± 0.030 nmol/mg tissue and a L-Serine level of 0.662 ± 0.037 nmol/mg tissue. In experiment [1] (plasma), this molecule came in with a D-Serine level of 7.522 ± 0.578 nmol/mL, a Glutamate level of 38.003 ± 1.974 nmol/mL, a Glutamine level of 496.268 ± 15.748 nmol/mL and a Glycine level of 354.185 ± 9.806 nmol/mL. For the same molecule, the L-Serine level in experiment [1] (plasma) stood at 144.824 ± 4.622 nmol/mL. In experiment [1] (striatum), this molecule displayed a D-Serine level of 0.281 ± 0.010 nmol/mg tissue, a GABA level of 3.076 ± 0.151 nmol/mg tissue, a Glutamate level of 7.745 ± 0.141 nmol/mg tissue and a Glutamine level of 5.735 ± 0.319 nmol/mg tissue. Besides, in experiment [1] (striatum), the Glycine level turned out to be 0.755 ± 0.039 nmol/mg tissue and the L-Serine level was found to be 0.715 ± 0.032 nmol/mg tissue. The “composition of gut microbiota” value in experiment [2] (maternal glyphosate exposure) is reported as “abnormal composition”. For the same molecule, in experiment [2] (vs water-treated group), the “relative abundance of Clostridium sp. Clone-1, Enterorhabdus muris, Clostridium sp. Clone-46, and Butyricimonas virosa” value is “significantly higher”; the “relative abundance of Eubacterium plexicaudatum, Lachnospiraceae bacterium 538, and Clostridium tertium” value is “significantly lower”.

As for “polyriboinosinic-polyribocytidilic acid [Poly(I:C)]”, the “exploratory preference in NORT” value in experiment [3] (adult offspring after prenatal poly(I:C) exposure) is listed as “Decreased”. The “exploratory preference, retention session of NORT” value in experiment [3] (juvenile offspring, poly(I:C)+water group vs saline+water group) is “significantly lower”.
